Consider four compounds from publication PMC11409218, “Metal(triphenylphosphine)-atovaquone Complexes: Synthesis, Antimalarial Activity, and Suppression of Heme Detoxification” (Inorganic Chemistry, 2024).

Like-named read-outs stand apart in the source and are kept apart here.

Data set [1] relates to P. falciparum 3D7 (CQ-susceptible strain). The experiment in a line: Antiplasmodial activity, asexual blood stages, HRP2 ELISA-based assay, 3D7 strain. Format: cell-based, Plasmodium falciparum. Conditions: for IC50: CQ-susceptible 3D7 strain, 72 h drug incubation, mean of five to seven experiments, read-out: P. falciparum IC50 (±SEM), 3D7. From the text: We determined the half-maximal inhibitory concentration (IC50) of the complexes against asexual blood stages of P. falciparum using CQ-susceptible and CQ-resistant strains (Table 2). […]. Two strains were selected for the tests: the CQ-susceptible 3D7 strain (isolated in West Africa; obtained from MR4, VA, USA), and the CQ-resistant W2 strain (isolated in Indochina; obtained from MR4, VA, USA). Both were maintained in culture in RPMI 1640 (Invitrogen, Paisley, UK), supplemented with 10% human serum (Abcys S.A. Paris, France), and buffered with 25 mM HEPES and 25 mM NaHCO3. Parasites were grown in A-positive human blood (Etablissement Français du Sang, Marseille, France) in controlled atmospheric conditions that consisted of 10% O2, 5% CO2, and 85% N2 at 37 °C with 95% humidity. […]
For in vitro isotopic microtests, 25 μL/well of antimalarial drug and 200 μL/well of parasitized red blood cell suspension (final parasitemia 0.5%, final hematocrit 1.5%) were distributed into 96-well plates. The plates were incubated for 72 h at 37 °C in 85% N2, 10% O2, 5% CO2. After freezing and then thawing, the hemolyzed cultures were homogenized by vortexing the plates. The drug susceptibility assay was performed using the HRP2 ELISA-based assay of the Malaria Ag Celisa kit (ref KM2159, Cellabs PTY LDT, Brookvale, Australia), as described previously.[72] […] […]. IC50 are expressed as means of at least 5 to 7 independent experiments.
Background: ELISA stands for enzyme-linked immunosorbent assay.

Data set [2] is described as follows: Interaction with ferriprotoporphyrin IX, spectroscopic titration of Soret band at 402 nm. It counts as binding. The following applies: for log K (association constant of drug binding to hemin): pH 7.4, 40% aqueous DMSO, 1:1 complexation model, mean and SEM of three experiments; for hypochromic effect on the Soret band of hemin: until saturation point, 402 nm. Here is the method:
The association constants (Log K) of the compounds with hemin were determined at pH 7.4 using a 1:1 complexation model with the equation proposed by Egan et al.[52] for the nonlinear least-squares fitting (Figure 2, Table 2).
Following a procedure described in the literature,[52] the association constant (Log K) of the drugs with ferriprotoporphyrin IX was determined in 40% aqueous DMSO. A stock solution of hemin chloride was prepared by adding 3.5 mg hemin to 10 mL DMSO and adjusted to pH 7.5. A working solution of hemin in 40% DMSO was further prepared by mixing 140 μL hemin stock solution, 5 mL distilled water, 3.86 mL DMSO, and 1 mL 0.2 M Tris (tris(hydroxymethyl)aminomethane) buffer. Aliquots of compounds were added to this working hemin solution. Blank solutions containing only hemin or compounds were prepared to subtract the absorbance of the compounds. […] Binding affinity was determined using the equation A = (A0 + A∞K[C])/(1 + K[C]) for a 1:1 complexation model using nonlinear least-squares fitting, where A0 is the absorbance of Fe(III)PPIX, A∞ is the absorbance of the compound–hemin adduct at saturation, and K is the association constant. Three independent experiments were performed.

Data set [3] is described as follows: Buffer–n-octanol distribution coefficient (shaking flask method). As for the experimental part: The distribution coefficient (Log D), a proxy parameter to estimate drug lipophilicity, was assessed for ATV and its metal complexes 1–3.
Buffer–n-octanol distribution coefficients were determined using the shaking flask method.[73] A UV–vis calibration curve was prepared in the 10–100 μM range in n-octanol. […] The concentration of complex in n-octanol was measured spectrophotometrically in order to determine values of D = [compound] (in n-octanol)/[compounds] (in buffer).[66],[67]

For data set [4], the system named is 3D7 strain of P. falciparum. The experiment in a line: Antiplasmodial activity after preincubation of compounds in cell culture medium (Figure 3A). Format: cell-based, Plasmodium falciparum. The following applies: compound preincubated 0 or 72 h in culture medium. Here is the method:
To understand the reason for the difference in antiplasmodial potency between monodentate complex 2 and bidentate complexes 1 and 3, we incubated all three metal complexes in cell culture media for different times before assessing their antiplasmodial activity (Figure 3A). The percentage of parasite growth inhibition in samples of cell culture medium containing complex 2 was reduced after 72 h incubation in comparison to freshly prepared samples (0 h). […] We interpret the loss in antiplasmodial activity for complex 2 as potentially resulting from ligand exchange reactions occurring in the culture medium before drug internalization into parasite cells. This denotes a higher lability for the monodentate complex 2 than for the bidentate complexes 1 and 3.
(§1) Figure 3 (A) Antiplasmodial activity of the compounds against the 3D7 strain of P. falciparum. (B) Cytotoxicity against the J774 cell line. In both cases, the compounds were diluted in cell culture and incubated for 0 or 72 h before use in the assays. […] In panels A and C, parasite viability was measured by HRP2 ELISA-based assay, and IC50 values were calculated. In panel B, cell viability was measured by CellTiter-Glo, and IC50 values were calculated. In panels A and B, the values are the mean and standard deviation of two independent experiments, using each concentration of compounds in duplicate. In panel C, the values are the mean and standard deviation of one experiment, using each concentration of compounds in quadruplicate. *p < 0.05; indicating significant difference by Student’s t test.

The next data set in a line: Solubility in solvents. It counts as physicochemical. The following applies: for solubility in common organic solvents: dichloromethane, chloroform, dimethyl sulfoxide, acetone. From the text:
(see Experimental Section). The chemical and physical characterization of ATV and the metal–ATV complexes are presented in the Supporting Information (Figures S1–S16). […] We attributed this band to a metal-to-ligand charge transfer (MLCT metal →π ATV naphthoquinone)[37] (Figures S3, S26–S28).

A further data set has as its system J774 cell line. The experiment in a line: Cytotoxicity after preincubation of compounds in cell culture medium (Figure 3B). Format: cell-based, murine. Conditions: J774 cells; compound preincubated 0 or 72 h in culture medium. As for the experimental part:
as §1
To further shed light on this, we performed the same experiment described above but assessing cytotoxicity in […] cells (Figure 3B). […] Our data also confirm not only drug stability but also the reactivity of the resulting products as important parameters.

The IC50 is the concentration that inhibits the measured activity by half. As usually defined, the logD is lipophilicity at a set pH, counting ionised and neutral species. Read a high logD as higher lipophilicity. In the case of `O=C1C(O)=C([C@H]2CC[C@H](c3ccc(Cl)cc3)CC2)C(=O)c2ccccc21` [ATV, atovaquone], in data set [1] (CC50 (J774)/IC50(3D7)), the “Selectivity index (S.I.)” value is on record as 8250. Moreover, the half-maximal inhibitory concentration (IC50) in data set [1] (Plasmodium falciparum) stood at 2.4 ± 1.2 nM. In data set [2], the “log K (association constant of drug binding to hemin)” value (“log K” below) came out at 3.64 ± 0.10 and the “hypochromic effect on the Soret band of hemin” value (“hypochromic effect” below) stood at 42%. The compound also displayed a logD at 18 h in data set [3] (pH 5) of -1.17. The logD at 18 h in data set [3] (pH 7) is -1.15.
Regarding `O=C1C([O][Cu]([PH](c2ccccc2)(c2ccccc2)c2ccccc2)[PH](c2ccccc2)(c2ccccc2)c2ccccc2)=C([C@H]2CC[C@H](c3ccc(Cl)cc3)CC2)C(=O)c2ccccc21` [Complex 3, [Cu(ATV)(PPh3)2]], the IC50 in data set [1] was 30.7 ± 10.7 nM. In addition, in data set [4], the “parasite growth inhibition after 72 h incubation in cell culture medium versus freshly prepared samples (0 h)” value is reported as “remained unchanged”. Besides, in “Solubility in solvents”, the “solubility in common organic solvents” value is “had enough solubility”; the “solubility in methanol, ethanol, and acetonitrile” value (“solubility in methanol, ethanol” below) is “partially soluble”. Besides, in the data set on J774 cell line, the “cell viability (cytotoxicity) after 72 h incubation in cell culture medium versus freshly prepared samples (0 h)” value is “remained unchanged”. Also, in data set [2], the “log K” value was found to be 3.97 ± 0.01 and the “hypochromic effect” value was 38%. For the same compound, in data set [3] (pH 5), the “log D pH 5” value is “–5.18”. Moreover, the “log D pH 7” value in data set [3] (pH 7) is reported as 1.06.
In the case of [Ag(ATV)(PPh3)2] [Complex 1], in data set [1], the half-inhibitory concentration (IC50) worked out at 30.5 ± 9.7 nM. Further, in data set [4], the “parasite growth inhibition after 72 h incubation in cell culture medium versus freshly prepared samples (0 h)” value is recorded as “remained unchanged”. Also, in “Solubility in solvents”, the “solubility in common organic solvents” value is listed as “had enough solubility”; the “solubility in methanol, ethanol” value is given as “partially soluble”. In the data set on J774 cell line, the “cell viability (cytotoxicity) after 72 h incubation in cell culture medium versus freshly prepared samples (0 h)” value was “became less cytotoxic”. Further, in data set [2], the “log K” value came to 4.33 ± 0.05 and the “hypochromic effect” value came out at 37%. Also, in data set [3] (pH 5), the “log D pH 5” value is recorded as “–2.12”. Besides, the “log D pH 7” value in data set [3] (pH 7) was determined as 0.08.
On to [Au(ATV)(PPh3)]·2H2O [Complex 2], for which the IC50 in data set [1] worked out at 8.1 ± 2.7 nM. In addition, the “parasite growth inhibition after 72 h incubation in cell culture medium versus freshly prepared samples (0 h)” value in data set [4] is “reduced”. Moreover, in the data set “Solubility in solvents”, the “solubility in common organic solvents” value was “had enough solubility”; the “solubility in methanol, ethanol” value is “partially soluble”. In the data set on J774 cell line, the “cell viability (cytotoxicity) after 72 h incubation in cell culture medium versus freshly prepared samples (0 h)” value is recorded as “remained unchanged”. Besides, in data set [2], the “log K” value was 4.46 ± 0.01 and the “hypochromic effect” value was found to be 51%. Moreover, the “log D pH 5” value in data set [3] (pH 5) was “–1.87”. For the same compound, the “log D pH 7” value in data set [3] (pH 7) is listed as “–1.71”.
